This note sets out measurements from US20090055964A1, “MPO1 GENE AND PROTEIN AND METHODS OF USE” (priority 2006, published 2009).

For series [1], the target named is T1, recombinant TRX-NtMPO1 fusion protein (Nicotiana tabacum, UniProt A0A1S4BDC4).
T1 sequence (A0A1S4BDC4 1-790): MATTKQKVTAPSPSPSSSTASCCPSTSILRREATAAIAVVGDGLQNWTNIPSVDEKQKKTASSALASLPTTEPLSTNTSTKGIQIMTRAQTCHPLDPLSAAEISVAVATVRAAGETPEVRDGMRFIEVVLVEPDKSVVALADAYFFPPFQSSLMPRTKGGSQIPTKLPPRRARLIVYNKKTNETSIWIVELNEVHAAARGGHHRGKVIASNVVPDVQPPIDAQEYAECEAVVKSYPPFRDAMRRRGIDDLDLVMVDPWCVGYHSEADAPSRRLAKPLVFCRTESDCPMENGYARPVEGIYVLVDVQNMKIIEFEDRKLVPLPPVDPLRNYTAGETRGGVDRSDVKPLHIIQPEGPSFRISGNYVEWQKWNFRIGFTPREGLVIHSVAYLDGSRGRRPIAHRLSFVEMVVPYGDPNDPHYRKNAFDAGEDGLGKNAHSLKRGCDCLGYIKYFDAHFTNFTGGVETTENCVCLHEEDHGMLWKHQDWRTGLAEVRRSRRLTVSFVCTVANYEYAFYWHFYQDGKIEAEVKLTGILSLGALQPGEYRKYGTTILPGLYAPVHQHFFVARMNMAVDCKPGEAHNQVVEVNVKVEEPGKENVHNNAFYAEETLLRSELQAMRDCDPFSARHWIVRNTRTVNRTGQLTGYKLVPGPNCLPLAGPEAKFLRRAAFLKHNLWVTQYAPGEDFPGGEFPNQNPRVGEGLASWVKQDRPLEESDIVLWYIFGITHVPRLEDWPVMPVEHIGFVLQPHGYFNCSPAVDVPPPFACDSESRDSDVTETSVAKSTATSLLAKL
The experiment in a line: spectrophotometric amine oxidase assay of recombinant TRX-NtMPO1 with diamine substrates. Conditions: for Vmax: substrate kinetics, Lineweaver-Burk plots, three independent extracts. Here is the method:
This modified fragment was cloned into pCR2.1 (Invitrogen) to yield pJGJ367. […] Finally, a 2.6 Kb NcoI-XhoI (partial) fragment was cut from pJGJ369 and ligated into pET32a+ similarly cut, to yield pJGJ389. Plasmid pJGJ389 was transformed into the Rosetta E. coli strain (Novagen, Madison, Wis.) for expression of a recombinant […] protein. Mid-log phase Rosetta/pJGJ389 cells were cultured overnight in LB media supplemented with 100 ug/ml Ampicillin, 30 ug/ml Chloramphenicol, and 0.2 mM isopropyl-β-D-thiogalactoside at 18° C. at 250 rpm. The cells were pelleted, lysed, and the native protein extract incubated with Ni-NTA superflow resin, and the TRX-MPO1 was eluted as per manufacture's instructions (Qiagen, Valencia, Calif.). The TRX-MPO1 enriched extract was mixed 1:1 (v:v) with 100% glycerol and stored at −20° C.

Another series concerns NCCCN. The experiment in a line: purified protein, by the assay type. Conditions: other: substrate kinetics, Lineweaver-Burk plots, three independent extracts; 18.0 °C.

Method for NCCCN: Mid-log phase Rosetta/pJGJ389 cells were cultured overnight in LB media supplemented with 100 ug/ml Ampicillin, 30 ug/ml Chloramphenicol, and 0.2 mM isopropyl-β-D-thiogalactoside at 18° C. at 250 rpm. The cells were pelleted, lysed, and the native protein extract incubated with Ni-NTA superflow resin, and the TRX-MPO1 was eluted as per manufacture's instructions (Qiagen, Valencia, Calif.). The TRX-MPO1 enriched extract was mixed 1:1 (v:v) with 100% glycerol and stored at −20° C. […] Background-corrected diamine oxidase rates were graphed as Lineweaver-Burk plots in order to estimate the Vmax and Km of the recombinant TRX -NtMPO1 fusion protein isolated from three independent extracts.

The term Vmax denotes the top rate of the reaction or transport when substrate is in excess. In the case of `CNCCCCN` [N-methylputrescine, N-methyl-1,4 diaminebutane], the Vmax in series [1] was 0.0017 ± 0.0001 mM/min.

`NCCCN` [1,3-diamine propane, 1,3-diaminepropane]: the “oxidative deamination as substrate by recombinant TRX-MPO1” value in series [1] (qualitative, different kinetics for each substrate) is given as “oxidatively deaminated”.

Turning to `NCCCCN` [putrescine], in series [1], the Vmax stood at 0.0007 ± 0.0001 mM/min.

Broadly, the Km is the concentration of substrate that gives half-maximal velocity. Turning to “recombinant TRX-NtMPO1 fusion protein (Nicotiana tabacum)”, in the series with NCCCN, the Km came to 350 ± 30 µM, the Vmax was 0.7 µM/min and the Vmax/Km came to 0.00193 min⁻¹.

As to `NCCCCCN` [cadaverine], the Vmax in series [1] is 0.0003 ± 0.00004 mM/min.
